In patent US9533002B2, “Methods of treating a metabolic syndrome by modulating heat shock protein (HSP) 90-β” (Berg LLC, priority 2012, dated 2017):
Entries after “also recorded” stand apart in the source; their conditions may differ.

What was measured:
[1] = system: HSMM myotubes; experiment: Insulin signaling in HSMM myotubes: western blot of total and phosphorylated Akt, Erk, GSK3β; format: cell-based, human; conditions: myotubes treated with inhibitor, then insulin stimulation
Method: Human skeletal muscle myoblasts (HSMM) were procured from PromoCell and were cultured in growth media recommended by the vendor. Confluent cultures were replaced with differentiation media (DMEM, 2% horse serum, pyruvate and HEPES) and cells allowed to differentiate for 7 to 10 days.
Human HSMM myotubes cells that were plated in 12 well plates the previous week were used. The media was aspirated and fresh media with appropriate dilutions of the NC and H3 siRNA for Hsp90 knockdown were added such that the final concentration in the wells of the plate was 100 nM. Mirus TKO transfection reagent was used for transfecting the cells. The plate was then incubated at 37° C. overnight.
The media was aspirated and the cells were washed off twice—first with warm PBS and second with 0.1% BSA containing growth media. The cells were then serum starved for 2-3 hours in 0.1% differentiation media containing the appropriate inhibitors at 37° C. followed by insulin stimulation for 5 minutes (0, 10, and 100 nM insulin).
The wells were then washed once with PBS and harvested into 100 μl of RIPA buffer containing protease and phosphatase inhibitors. The plate was placed on ice and, using a cell scraper, the cells were scraped from the plate. […]
Protein content was estimated by BCA assay and samples were prepared for gel electrophoresis and western blotting as described in subsequent sections. The total volume required to load 10 μg of total protein was calculated. […]
Visualization of proteins and quantification of western blots was performed as follows. […]
Each strip of membrane was taken out arranged in a clean flat surface. […] The bands were quantified using the BIORAD® software.
HSMM myotubes were sequentially (1) transfected with 3 different siRNAs targeting HSP90AB1 for 48 hours, (2) serum starved for 3 hours, and (3) subjected to stimulation of different concentrations of insulin (0, 10, 100 nM). Signaling events downstream of insulin stimulation were assessed by western blotting for levels of total and phosphorylated Akt, Erk, and GSK3β. […]

[2] = system: HSMM myotubes; experiment: Seahorse bioenergetic profiling of myotubes (OCR; oligomycin, CCCP, rotenone); format: cell-based, human
Method: HSMM myotubes cultured in wells in a Seahorse® assay cartridge were differentiated with 2% horse serum myocyte differentiation media for 7 days. Cells were transfected with either negative control scrambled siRNA or siHsp siRNA with TKO transfection reagents at concentration of 50 nM following vendor instructions as described above (Mirus Bio®). After 48 hours transfection, cells were subjected to Seahorse® bioenergetics analysis using drugs to modulate cell energetics, i.e., oligomycin, carbonyl cyanide-M-chlorophenyl hydrazine (CCCP), and rotenone. Oligomycin inhibits mitochondrial ATP synthase (complex V of ET chain) and allows analysis of glycolytic capacity. CCCP is an uncoupler that […] the mitochondrial membrane, thereby inducing maximum compensatory oxygen consumption, and allows analysis of uncoupled OCR. Rotenone inhibits NADH dehydrogenase (complex I of ET chain) and allows analysis of non-mitochondrial OCR.
To perform the assay, each well of the Seahorse® assay cartridge was washed with 1 ml running media. 500 ul of running media was added to each well and the plate was placed in an 37° C. (CO2 free) incubator. Drugs to modulate mitochondrial activity were prepared at a 10× (10 uM) concentration, so that after addition to the cartridge, the final concentration would be 1× (1 μM). Oligomycin (50 ul), CCCP (55 ul) and rotenone (55 ul) were added to ports A, B, and C of the cartridge and the cartridge was placed back in the incubator. The Seahorse® assay wizard was opened and the cycle parameters and times were setup. The Seahorse® assay was then performed using the instrument. After the Seahorse® assay, cells were lysed with 50 ul 450 mM NaOH and then neutralized with 5 ul Tris 6.8. DNA lysates were subjected to spectrophotometric analysis at OD260 using BioTek® Take3 DNA plate reader. The data were normalized with DNA contents of the cells.
HSMM myotubes were transfected with siRNA of either control or siHsp90β for 48 hours as described above, then subjected to Seahorse® bioenergetic profiling (XF24 Analyzer) using different mitochondrial drugs including oligomycin, CCCP, and rotenone; and monitored changes on oxygen consumption rate (OCR) that reflects either basal or maximum mitochondrial oxidative capacity. The results were normalized by DNA content.

[3] = myotubes treated at different concentrations

SMILES: CCc1cc(-c2n[nH]c(C)c2-c2ccc3c(c2)OCCO3)c(O)cc1O [CCT018159]
- level of pERK [1]: no change; also recorded: No significant changes
- level of pGSK3β [1]: no change; also recorded: No significant changes
- insulin stimulated phosphorylation of Akt (phospho-AKT) ([1]; higher concentration, 10 uM, vs untreated cultures): significantly enhanced; also recorded: increase
- CCCP induced uncoupling response on mitochondrial metabolism ([2]; 1 μM, 3 μM, and 10 μM (FIG. 10 legend)): did not have a significant effect
- CCCP induced OCR ([2]; 10 uM): greater suppression
- uncoupled OCR ([2]; lower concentration, 1 μM): increased
- basal OCR [2, 3]: no observed change
- uncoupled OCR (CCCP induced) [2, 3]: decreased in a concentration dependent manner
